Reference: PMC7305224, “Mutually stabilizing interactions between proto-peptides and RNA” (Nature Communications, 2020)
Entries after “also recorded” stand apart in the source; their conditions may differ. Non-standard residues stand in square brackets, D forms with d. Residues, ends and D or L forms follow the SMILES beside them. Dab = NCC[C@H](N)C(=O)O; Lac = C[C@H](O)C(=O)O

Key:
[1] = cited from earlier work
Excerpt: Several lines of evidence support the importance of electrostatic interactions in the observed stabilizations of RNA duplexes. First, as would be expected, higher numbers of cationic residues present in the depsipeptide/peptide led to greater increases in RNA duplex Tm (Table 1, entries #1–7). Second, the effect of His-containing depsipeptides was pH-dependent (Figs. 2d and 3c, d), as expected based on the His pKa of ~6.0. […] The ineffectiveness of this sequence is probably due to the l ...

[2] = test system: 10-mer RNA duplex (5′-6-FAM-rCrGrCrUrArArArUrCrG-3′ & 5′-rCrGrArUrUrUrArGrCrG-3IABkFQ-3′); experiment: RNA duplex Tm by rtPCR fluorescence with dry-down reaction mixtures; type: binding; settings: not subjected to the dry-down reaction (non-dried)
Description: Accordingly, we determined the effect of cationic proto-peptides on RNA duplex stability by monitoring changes in the melting temperature (Tm) of a short 10mer RNA duplex in the presence or absence of individual proto-peptide samples (Fig. 2). The complementary RNA strands were 5′- or 3′-labeled with either a fluorophore or a quencher so that the degree of RNA hybridization could be monitored by fluorescence in rtPCR instrumentation (Supplementary Fig. 9). […] For the Tm measurements, the proto-peptide samples were diluted to a final concentration of 25 mM (based on the amount of cationic amino acid used at the start of the dry-down) and mixed with the RNA duplex (2.5 μM each strand).
Dry-down reaction products were dissolved in deionized water to give a 100 mM stock solution based on the amount of monomers used at the start of the dry-down. […]
Prior to Tm analyses, RNA samples were annealed in the appropriate buffer by heating to 75 °C and slowly cooling to room temperature. […] For analyses involving dry-down reaction mixtures, the Tm was determined by monitoring fluorescence increase upon melting of a fluorophore/quencher-labeled RNA duplex (5′-rCrGrArUrUrUrArGrCrG-/3IABkFQ/-3′ and 3′-rGrCrUrArArArUrCrGrC-FAM-5′) using a BioRad CFX Connect rtPCR instrument with a heating ramp of 1 °C/min and 20 μL final sample volumes.

[3] = test system: RNA duplex 1; experiment: CD analysis of RNA duplex with peptides/depsipeptides; type: binding; settings: for changes in CD spectra of the RNA duplex upon addition: RNA duplex 5 µM, peptide/depsipeptide 0–10 µM, MES-TEA buffer (60 mM)
Excerpt: The gel was cropped at the edges for clarity. […] […] Red and blue colors of the filled circles correspond to curves of the same color in panel (c). […] […] Scans were from 320 nm to 220 nm with a bandwidth of 5 nm, data pitch of 0.2 nm, and scan rate of 50 nm/min with three accumulations. […] Data were collected in independent triplicates and the data were averaged. Finally, data were smoothed and plotted using Matlab.

[4] = test system: RNA duplex 2 (5′-rArArArArUrUrUrArUrArUrUrArUrUrA-3′ and 5′-rUrArArUrArArUrArUrArArArUrUrUrU-3′); experiment: RNA thermal denaturation (Tm) by UV hyperchromicity, RNA duplex 2; type: binding
Description: (§1) Prior to Tm analyses, RNA samples were annealed in the appropriate buffer by heating to 75 °C and slowly cooling to room temperature. Depsipeptide/peptide was added to the annealed RNA and incubated at 4 °C for 20 min prior to carrying out the analysis. For analyses involving dry-down reaction mixtures, the Tm was determined by monitoring fluorescence increase upon melting of a fluorophore/quencher-labeled RNA duplex (5′-rCrGrArUrUrUrArGrCrG-/3IABkFQ/-3′ and 3′-rGrCrUrArArArUrCrGrC-FAM-5′) using a BioRad CFX Connect rtPCR instrument with a heating ramp of 1 °C/min and 20 μL final sample volumes. For analyses involving pure, synthetic compounds, the Tm of the RNA was determined by monitoring UV hyperchromicity at 260 nm using a Varian Cary Bio-100 spectrophotometer, with a heating ramp of 1 °C/min and 0.5- or 1-cm pathlength cells. The following RNA sequences were used: RNA duplex 1 = 5′-rCrGrCrUrArArArUrCrG-3′ and 5′-rCrGrArUrUrUrArGrCrG-3′; RNA duplex 2 = 5′-rArArArArUrUrUrArUrArUrUrArUrUrA-3′ and 5′-rUrArArUrArArUrArUrArArArUrUrUrU-3′; RNA duplex 3 = 5′-rArArCrGrUrArUrArCrGrUrU-3′ (palindromic); and H26a RNA = 5′-rArUrGrArGrUrArArCrCrGrUrArArGrGrUrGrArArArUrU-3′. RNA was present in each assay at a final concentration of 2.5 μM of the folded structure (2.5 μM each strand for duplex 1 and duplex 2, 5.0 μM palindromic strand for duplex 3, 2.5 μM strand for H26a RNA). Tm values were determined by nonlinear fitting of the melting curves using GraphPad Prism 8.2.1 for duplex 1 and H26a, or by finding the maximum of the first derivative of the curve using the Varian Cary Bio-100 software for duplex 2 and duplex 3. Both methods of determining the Tm gave similar values for a given denaturation curve.

[5] = test system: H26a RNA (5′-rArUrGrArGrUrArArCrCrGrUrArArGrGrUrGrArArArUrU-3′); experiment: RNA thermal denaturation (Tm) by UV hyperchromicity, H26a RNA hairpin; type: binding
Description: as §1

[6] = test system: RNA duplex 3 (5′-rArArCrGrUrArUrArCrGrUrU-3′, palindromic); experiment: RNA thermal denaturation (Tm) by UV hyperchromicity, RNA duplex 3; type: binding
Description: as §1

[7] = test system: RNA duplex 1 (5′-rCrGrCrUrArArArUrCrG-3′ & 5′-rCrGrArUrUrUrArGrCrG-3′); experiment: RNA thermal denaturation (Tm) by UV hyperchromicity at 260 nm with synthetic peptides/depsipeptides, RNA duplex 1; type: binding; settings: 100 mM NaCl
Description: Each sample contained RNA duplex 1 (5′-rCrGrCrUrArArArUrCrG-3′ and 5′-rCrGrArUrUrUrArGrCrG-3′, 2.5 μM strand) and peptide/depsipeptide (100 μM) in buffered solution (10 mM phosphate, 100 mM NaCl, pH 7.0 or 10 mM acetate, 100 mM NaCl, pH 5.0). a Structures of depsipeptides used to systematically characterize cationic side chain effects on RNA duplex stability. Lactic acid residues are highlighted. Ac acetyl, Aba acetamidobenzoic acid, which was appended to the N-terminus to increase UV absorbance. b Structures of the Fmoc-didepsipeptide building blocks used for solid-phase synthesis of depsipeptide sequences. Fmoc fluorenylmethoxycarbonyl. c Comparative effects of oligo-didepsipeptide sequences 2–6 and analogous oligo-dipeptide and on the Tm of the RNA duplex (number of independent measurements: n = 3 for Arg and Lys sequences; n = 2 for His and Dab sequences; n = 4 for Orn sequences). The shaded areas correspond to the mean ± SD Tm measured for the RNA duplex alone (n = 16 independent measurements). Data are shown as a scatter plot with mean ± SD. d Comparative effects on RNA duplex Tm of depsipeptide sequences containing a single backbone ester (number of independent measurements: n = 3 for Arg; n = 2 for His, Orn, and Dab; n = 4 for Lys), relative to RNA duplex alone (n = 16 independent measurements). Data are shown as a scatter plot with mean ± SD. e To assess the impact of different cationic side chains on depsipeptide degradation rates, depsipeptides 7–11 (40 μM) were incubated at 37 °C in buffer (100 mM HEPES, 10 mM NaCl, pH 7.3). After 5 min, the reactions were quenched by the addition of 3% TFA, and samples were analyzed by HPLC.
as §1, with “3.” for “3. Both methods of determining the Tm gave similar values for a given denaturation curve.”

## NCC(N)C(=O)O (stereo not shown) [Dpr, 2,3-diaminopropionic acid]
[1]; when incorporated into oligomeric sequences
  pKa of side chain β-amine: ~ 6.3

## N[C@@H](Cc1c[nH]cn1)C(=O)O [His, histidine]
[1]; His side chain, no reference given
  pKa: ~ 6.0

## NCCC(O)C(=O)O (stereo not shown) [hab, 2-hydroxy-4-aminobutyric acid]
[2]
  effect on RNA duplex Tm, non-dried controls: no effect on the Tm

## CC(=O)N[C@@H](Cc1ccc(O)cc1)C(=O)NCC(=O)N[C@@H](C)C(=O)N[C@@H](CCN)C(=O)N[C@@H](CCCCN)C(=O)N[C@@H](C)C(=O)N[C@@H](CCN)C(=O)N[C@@H](CCCCN)C(=O)N[C@@H](C)C(=O)N[C@@H](CCN)C(=O)N[C@@H](CCCCN)C(=O)N[C@@H](C)C(=O)N[C@@H](CCN)C(=O)N[C@@H](CCCCN)C(N)=O (Ac-YGA[Dab]KA[Dab]KA[Dab]KA[Dab]K-NH2)
[3]; listed as Ac-Tyr-Gly-(Ala-Dab-Lys)4-NH2
  changes in CD spectra of the RNA duplex upon addition: physical association; also recorded: changes were observed in the CD spectra

## CC(=O)N[C@@H](Cc1ccc(O)cc1)C(=O)NCC(=O)N[C@@H](C)C(=O)N[C@@H](CCN)C(=O)N[C@@H](CCCCN)C(=O)N[C@@H](C)C(=O)N[C@@H](CCN)C(=O)N[C@@H](CCCCN)C(N)=O [Ac-Tyr-Gly-Ala-Dab-Lys-Ala-Dab-Lys-NH2] (Ac-YGA[Dab]KA[Dab]K-NH2)
[3]
  changes in CD spectra of the RNA duplex upon addition: physical association

## NCCCCC(O)C(=O)O (stereo not shown) [hah, 2-hydroxy-6-aminohexanoic acid]
[2]
  effect on RNA duplex Tm, non-dried controls: no effect on the Tm

## CC(=O)N[C@@H](Cc1ccc(O)cc1)C(=O)NCC(=O)N[C@@H](C)C(=O)N[C@@H](CCN)C(=O)N[C@@H](CCCCN)C(=O)O[C@@H](C)C(=O)N[C@@H](CCN)C(=O)N[C@@H](CCCCN)C(=O)O[C@@H](C)C(=O)N[C@@H](CCN)C(=O)N[C@@H](CCCCN)C(=O)O[C@@H](C)C(=O)N[C@@H](CCN)C(=O)N[C@@H](CCCCN)C(N)=O [compound 14, Ac-Tyr-Gly-Ala-Dab-Lys-lac-Dab-Lys-lac-Dab-Lys-lac-Dab-Lys-NH2] (Ac-YGA[Dab]K[Lac][Dab]K[Lac][Dab]K[Lac][Dab]K-NH2)
[4]; observed Tm with peptide/depsipeptide 100 µM, pH 7.0, RNA alone 33.7 ± 0.7, mean ± SD of 2-4 independent experiments
  RNA duplex 2 Tm: 42.8 ± 0.6 °C
[4]; peptide/depsipeptide 100 μM, RNA 2.5 μM each strand, pH 7.0, 10 mM phosphate, 100 mM NaCl, mean of 2–4 replicates
  RNA duplex 2 ΔTm: 9.1 °C
[5]; observed Tm with peptide/depsipeptide 100 µM, pH 7.0, RNA alone 53.4 ± 0.5, mean ± SD of 2-4 independent experiments
  H26a RNA Tm: 63.8 ± 0.6 °C
[5]; peptide/depsipeptide 100 μM, RNA 2.5 μM strand, pH 7.0, 10 mM phosphate, 100 mM NaCl, mean of 2–4 replicates
  H26a RNA ΔTm: 10.4 °C
[6]; observed Tm with peptide/depsipeptide 100 µM, pH 7.0, RNA alone 48.6 ± 0.7, mean ± SD of 2-4 independent experiments
  RNA duplex 3 Tm: 58.6 ± 0.7 °C
[6]; peptide/depsipeptide 100 μM, 5.0 μM palindromic strand, pH 7.0, 10 mM phosphate, 100 mM NaCl, mean of 2–4 replicates
  RNA duplex 3 ΔTm: 10.0 °C
[3]
  changes in CD spectra of the RNA duplex upon addition: changes were observed in the CD spectra
[3]; change in CD signal at 266 nm, one-site binding model, RNA duplex 1 5 μM each strand, depsipeptide 0–10 μM, MES-TEA buffer pH 6, 5 °C, independent triplicates averaged, read-out: apparent Kd
  Kd: ~3000 nM
[7]; observed Tm with peptide/depsipeptide 100 µM, pH 7.0, 10 mM phosphate, RNA alone 43.8 ± 0.4, mean ± SD of 2-4 independent experiments
  RNA duplex 1 Tm: 52.4 ± 1.5 °C
[7]; peptide/depsipeptide 100 μM, RNA 2.5 μM each strand, 10 mM phosphate, pH 7.0, vs RNA alone at matched pH, mean of 2–4 replicates
  RNA duplex 1 ΔTm: 8.6 °C
